From ChEMBL document CHEMBL1151757, “Synthesis, radiosynthesis, and biological evaluation of fluorine-18-labeled 2beta-carbo(fluoroalkoxy)-3beta-(3'-((Z)-2-haloethenyl)phenyl)nortropanes: candidate radioligands for in vivo imaging of the serotonin transporter with positron emission tomography” (J Med Chem, 2008)

How the values were obtained:
[1] = test system: Pons; assay: Drug uptake in anesthetized cynomolgus monkey brain pons after 1.5 mins postinjection; assay type: ADME, organism-based, Macaca fascicularis; conditions: in vivo, 0.025 h
[2] = Ratio of drug uptake in occipital lobe to cerebellum in anesthetized cynomolgus monkey after 12.5 mins postinjection; assay type: ADME, organism-based, Macaca fascicularis; conditions: in vivo
[3] = test system: Putamen; assay: Drug uptake in anesthetized cynomolgus monkey brain putamen after 195 mins postinjection; assay type: ADME, organism-based, Macaca fascicularis; conditions: in vivo, 3.25 h
[4] = Drug uptake in anesthetized cynomolgus monkey brain frontal lobe after 35 mins postinjection; assay type: ADME, organism-based, Macaca fascicularis; conditions: in vivo
[5] = Drug uptake in anesthetized cynomolgus monkey brain occipital lobe after 18.5 mins postinjection; assay type: ADME, organism-based, Macaca fascicularis; conditions: in vivo
[6] = test system: Putamen; assay: Drug uptake in anesthetized cynomolgus monkey brain putamen after 145 mins postinjection; assay type: ADME, organism-based, Macaca fascicularis; conditions: in vivo
[7] = Ratio of drug uptake in midbrain to cerebellum in anesthetized cynomolgus monkey after 235 mins postinjection; assay type: ADME, organism-based, Macaca fascicularis; conditions: in vivo
[8] = test system: Caudate; assay: Drug uptake in anesthetized cynomolgus monkey brain caudate after 18.5 mins postinjection; assay type: ADME, organism-based, Macaca fascicularis, Caudate nucleus; conditions: in vivo
[9] = Ratio of drug uptake in putamen to cerebellum in anesthetized cynomolgus monkey after 3.5 mins postinjection; assay type: ADME, organism-based, Macaca fascicularis; conditions: in vivo
[10] = test system: Medulla; assay: Drug uptake in anesthetized cynomolgus monkey brain medulla after 3.5 mins postinjection; assay type: ADME, organism-based, Macaca fascicularis; conditions: in vivo
[11] = Ratio of drug uptake in putamen to cerebellum in anesthetized cynomolgus monkey after 75 mins postinjection; assay type: ADME, organism-based, Macaca fascicularis; conditions: in vivo, 1.25 h
[12] = test system: Putamen; assay: Drug uptake in anesthetized cynomolgus monkey brain putamen after 95 mins postinjection; assay type: ADME, organism-based, Macaca fascicularis; parameters: unit not given here; conditions: in vivo
[13] = test system: Midbrain; assay: Drug uptake in anesthetized cynomolgus monkey brain midbrain after 0.5 mins postinjection; assay type: ADME, organism-based, Macaca fascicularis; parameters: unit not given here; conditions: in vivo
[14] = test system: Putamen; assay: Drug uptake in anesthetized cynomolgus monkey brain putamen after 235 mins postinjection; assay type: ADME, organism-based, Macaca fascicularis; conditions: in vivo
[15] = test system: Thalamus; assay: Drug uptake in anesthetized cynomolgus monkey brain thalamus after 3.5 mins postinjection; assay type: ADME, organism-based, Macaca fascicularis; parameters: unit not given here; conditions: in vivo
[16] = test system: Pons; assay: Drug uptake in anesthetized cynomolgus monkey brain pons after 195 mins postinjection; assay type: ADME, organism-based, Macaca fascicularis; conditions: in vivo, 3.25 h
[17] = test system: Thalamus; assay: Drug uptake in anesthetized cynomolgus monkey brain thalamus after 225 mins postinjection; assay type: ADME, organism-based, Macaca fascicularis; parameters: unit not given here; conditions: in vivo, 3.75 h
[18] = test system: Putamen; assay: Drug uptake in anesthetized cynomolgus monkey brain putamen after 12.5 mins postinjection; assay type: ADME, organism-based, Macaca fascicularis; parameters: unit not given here; conditions: in vivo
[19] = test system: Midbrain; assay: Drug uptake in anesthetized cynomolgus monkey brain midbrain after 15.5 mins postinjection; assay type: ADME, organism-based, Macaca fascicularis; parameters: unit not given here; conditions: in vivo
[20] = test system: Putamen; assay: Drug uptake in anesthetized cynomolgus monkey brain putamen after 35 mins postinjection; assay type: ADME, organism-based, Macaca fascicularis; parameters: unit not given here; conditions: in vivo
[21] = test system: Thalamus; assay: Drug uptake in anesthetized cynomolgus monkey brain thalamus after 75 mins postinjection; assay type: ADME, organism-based, Macaca fascicularis; parameters: unit not given here; conditions: in vivo, 1.25 h
[22] = Ratio of drug uptake in medulla to cerebellum in anesthetized cynomolgus monkey after 85 mins postinjection; assay type: ADME, organism-based, Macaca fascicularis; conditions: in vivo
[23] = test system: Medulla; assay: Drug uptake in anesthetized cynomolgus monkey brain medulla after 75 mins postinjection; assay type: ADME, organism-based, Macaca fascicularis; conditions: in vivo, 1.25 h
[24] = test system: Caudate; assay: Drug uptake in anesthetized cynomolgus monkey brain caudate after 225 mins postinjection; assay type: ADME, organism-based, Macaca fascicularis, Caudate nucleus; conditions: in vivo, 3.75 h
[25] = test system: Midbrain; assay: Drug uptake in anesthetized cynomolgus monkey brain midbrain after 75 mins postinjection; assay type: ADME, organism-based, Macaca fascicularis; parameters: unit not given here; conditions: in vivo, 1.25 h
[26] = test system: Midbrain; assay: Drug uptake in anesthetized cynomolgus monkey brain midbrain after 235 mins postinjection; assay type: ADME, organism-based, Macaca fascicularis; conditions: in vivo
[27] = test system: Midbrain; assay: Drug uptake in anesthetized cynomolgus monkey brain midbrain after 45 mins postinjection; assay type: ADME, organism-based, Macaca fascicularis; parameters: unit not given here; conditions: in vivo, 0.75 h
[28] = test system: Caudate; assay: Drug uptake in anesthetized cynomolgus monkey brain caudate after 205 mins postinjection; assay type: ADME, organism-based, Macaca fascicularis, Caudate nucleus; conditions: in vivo
[29] = test system: Medulla; assay: Drug uptake in anesthetized cynomolgus monkey brain medulla after 185 mins postinjection; assay type: ADME, organism-based, Macaca fascicularis; conditions: in vivo
[30] = test system: Medulla; assay: Drug uptake in anesthetized cynomolgus monkey brain medulla after 12.5 mins postinjection; assay type: ADME, organism-based, Macaca fascicularis; conditions: in vivo
[31] = test system: Midbrain; assay: Drug uptake in anesthetized cynomolgus monkey brain midbrain after 12.5 mins postinjection; assay type: ADME, organism-based, Macaca fascicularis; parameters: unit not given here; conditions: in vivo
[32] = test system: Thalamus; assay: Drug uptake in anesthetized cynomolgus monkey brain thalamus after 45 mins postinjection; assay type: ADME, organism-based, Macaca fascicularis; parameters: unit not given here; conditions: in vivo, 0.75 h
[33] = test system: Putamen; assay: Drug uptake in anesthetized cynomolgus monkey brain putamen after 27.5 mins postinjection; assay type: ADME, organism-based, Macaca fascicularis; parameters: unit not given here; conditions: in vivo
[34] = Ratio of drug uptake in occipital lobe to cerebellum in anesthetized cynomolgus monkey after 135 mins postinjection; assay type: ADME, organism-based, Macaca fascicularis; conditions: in vivo, 2.25 h
[35] = test system: Thalamus; assay: Drug uptake in anesthetized cynomolgus monkey brain thalamus after 105 mins postinjection; assay type: ADME, organism-based, Macaca fascicularis; parameters: unit not given here; conditions: in vivo, 1.75 h
[36] = test system: Caudate; assay: Drug uptake in anesthetized cynomolgus monkey brain caudate after 105 mins postinjection; assay type: ADME, organism-based, Macaca fascicularis, Caudate nucleus; conditions: in vivo, 1.75 h
[37] = Ratio of drug uptake in caudate to cerebellum in anesthetized cynomolgus monkey after 225 mins postinjection; assay type: ADME, organism-based, Macaca fascicularis; conditions: in vivo, 3.75 h
[38] = test system: Putamen; assay: Drug uptake in anesthetized cynomolgus monkey brain putamen after 9.5 mins postinjection; assay type: ADME, organism-based, Macaca fascicularis; parameters: unit not given here; conditions: in vivo
[39] = test system: Caudate; assay: Drug uptake in anesthetized cynomolgus monkey brain caudate after 95 mins postinjection; assay type: ADME, organism-based, Macaca fascicularis, Caudate nucleus; conditions: in vivo
[40] = Drug uptake in anesthetized cynomolgus monkey brain cerebellum after 215 mins postinjection; assay type: ADME, organism-based, Macaca fascicularis; conditions: in vivo
[41] = Drug uptake in anesthetized cynomolgus monkey brain cerebellum after 6.5 mins postinjection; assay type: ADME, organism-based, Macaca fascicularis; conditions: in vivo
[42] = Ratio of drug uptake in pons to cerebellum in anesthetized cynomolgus monkey after 125 mins postinjection; assay type: ADME, organism-based, Macaca fascicularis; conditions: in vivo
[43] = test system: Putamen; assay: Drug uptake in anesthetized cynomolgus monkey brain putamen after 45 mins postinjection; assay type: ADME, organism-based, Macaca fascicularis; parameters: unit not given here; conditions: in vivo, 0.75 h
[44] = Ratio of drug uptake in midbrain to cerebellum in anesthetized cynomolgus monkey after 125 mins postinjection; assay type: ADME, organism-based, Macaca fascicularis; conditions: in vivo
[45] = test system: Pons; assay: Drug uptake in anesthetized cynomolgus monkey brain pons after 2.5 mins postinjection; assay type: ADME, organism-based, Macaca fascicularis; conditions: in vivo
[46] = Ratio of drug uptake in caudate to cerebellum in anesthetized cynomolgus monkey after 135 mins postinjection; assay type: ADME, organism-based, Macaca fascicularis; conditions: in vivo, 2.25 h
[47] = test system: Pons; assay: Drug uptake in anesthetized cynomolgus monkey brain pons after 35 mins postinjection; assay type: ADME, organism-based, Macaca fascicularis; conditions: in vivo
[48] = test system: Pons; assay: Drug uptake in anesthetized cynomolgus monkey brain pons after 45 mins postinjection; assay type: ADME, organism-based, Macaca fascicularis; conditions: in vivo, 0.75 h
[49] = test system: Midbrain; assay: Drug uptake in anesthetized cynomolgus monkey brain midbrain after 1.5 mins postinjection; assay type: ADME, organism-based, Macaca fascicularis; parameters: unit not given here; conditions: in vivo, 0.025 h
[50] = test system: Caudate; assay: Drug uptake in anesthetized cynomolgus monkey brain caudate after 75 mins postinjection; assay type: ADME, organism-based, Macaca fascicularis, Caudate nucleus; conditions: in vivo, 1.25 h
[51] = test system: Thalamus; assay: Drug uptake in anesthetized cynomolgus monkey brain thalamus after 1.5 mins postinjection; assay type: ADME, organism-based, Macaca fascicularis; conditions: in vivo, 0.025 h
[52] = Ratio of drug uptake in midbrain to cerebellum in anesthetized cynomolgus monkey after 185 mins postinjection; assay type: ADME, organism-based, Macaca fascicularis; conditions: in vivo
[53] = Drug uptake in anesthetized cynomolgus monkey brain frontal lobe after 27.5 mins postinjection; assay type: ADME, organism-based, Macaca fascicularis; conditions: in vivo

## O=C(OCC[18F])C1C2CCC(CC1c1ccc(/C=C\I)cc1)N2 (stereo not drawn)
[1]
  Drug uptake: 0.06
[2]
  Ratio: 0.8
[3]
  Drug uptake: 4.01
[4]
  Drug uptake: 1.86
[5]
  Drug uptake: 1.81
[6]
  Drug uptake: 4.31
[7]
  Ratio: 4.4
[8]
  Drug uptake: 1.84
[9]
  Ratio: 1
[10]
  Drug uptake: 0.94
[11]
  Ratio: 1.8
[12]
  Drug uptake: 4.36
[13]
  Drug uptake: 0
[14]
  Drug uptake: 3.83
[15]
  Drug uptake: 0.76
[16]
  Drug uptake: 3.42
[17]
  Drug uptake: 3.35
[18]
  Drug uptake: 2.59
[19]
  Drug uptake: 2.58
[20]
  Drug uptake: 3.57
[21]
  Drug uptake: 4.02
[22]
  Ratio: 1.8
[23]
  Drug uptake: 3.82
[24]
  Drug uptake: 2.68
[25]
  Drug uptake: 4.41
[26]
  Drug uptake: 4.44
[27]
  Drug uptake: 3.76
[28]
  Drug uptake: 2.77
[29]
  Drug uptake: 3.41
[30]
  Drug uptake: 2.59
[31]
  Drug uptake: 2.38
[32]
  Drug uptake: 3.63
[33]
  Drug uptake: 3.38
[34]
  Ratio: 1.3
[35]
  Drug uptake: 4.11
[36]
  Drug uptake: 3.13
[37]
  Ratio: 2.5
[38]
  Drug uptake: 2.38
[39]
  Drug uptake: 3.05
[40]
  Drug uptake: 1.18
[41]
  Drug uptake: 1.79
[42]
  Ratio: 2.1
[43]
  Drug uptake: 3.8
[44]
  Ratio: 2.7
[45]
  Drug uptake: 0.36
[46]
  Ratio: 1.8
[47]
  Drug uptake: 2.74
[48]
  Drug uptake: 3.09
[49]
  Drug uptake: 0.1
[50]
  Drug uptake: 2.98
[51]
  Drug uptake: 0.11
[52]
  Ratio: 3.5
[53]
  Drug uptake: 1.76
